pEC50: −log10 of the molar value. Where two headings read alike, the source gives them in different places.
System: phosphorylation of Histone H3 in HeLa cells
Experiment: HeLa cell 1-hour phospho-histone assay
Assay type: cell-based
Details: Homo sapiens, % of cells pHH3 positive, read-out: inhibitory activity (EC50) in the phospho-histone H3 assay
Experimental: HeLa Cell 1-Hour Phospho-Histone Assay
The purpose of this assay is to test the inhibitory effect of Aurora compounds with respect to phosphorylation of Histone H3 in the cellular context. HeLa cells (9×10^4/well) are plated in black 96-well flat-bottom tissue culture plates and incubated for 40 hours prior to compound addition. Compounds are serially diluted in DMSO, followed by dilution into MEM containing 10 mM HEPES; 10 ul/well of diluted compounds are added to cells (0.5% DMSO final). Cells are incubated for 1 hour at 37° C. in 5% CO2. Cells are then fixed with 3.7% formaldehyde for 10 minutes, washed with wash buffer (1% goat serum and 0.1% Tween 20 in PBS), then permeabilized with 0.5% Triton X in PBS for 15 minutes. After washing with wash buffer, cells are incubated with primary antibody (Upstate #06-507 anti-phospho-histone (Ser 10) antibody (pHH3) for 1 hour at 10 ug/ml. After 2 washes with wash buffer, cells are incubated with secondary antibody (Molecular Probes #A11034 goat anti-rabbit Alexa-488 for 1 hour at 1 ug/ml+Hoechst 33342 nuclear dye at 1 ug/ml (Molecular Probes). Cells are washed 2 times with wash buffer, and buffer replaced with PBS. Plates are scanned on the Cellomics Array Scan (6 fields, ˜2000 cells/well) and % of cells that are pHH3 positive were calculated using the Cellomics algorithm.

Structure (SMILES)	pEC50	pEC50 (unit inferred)
CNc1nccc(-c2cccnc2Oc2ccc(Nc3nnc(-c4cc(C)cs4)c4c3CCC4)cc2)n1 [Example 122, N-(4-((3-(2-(methylamino)-4-pyrimidinyl)-2-pyridinyl)oxy)phenyl)-4-(4-methyl-2-thienyl)-6,7-dihydro-5H-cyclopenta[d] pyridazin-1-amine]	> 5.00	> 6.00
CNc1nccc(-c2cccnc2Oc2ccc(Nc3nnc(-c4ccccc4)c4c3CCCC4)cc2)n1 [Example 123, N-(4-((3-(2-(methylamino)-4-pyrimidinyl)-2-pyridinyl)oxy)phenyl)-4-phenyl-5,6,7,8-tetrahydro-1-phthalazinamine]	> 5.00	> 6.00
